# Data: ChEMBL document CHEMBL4219247, “Inhibitors of dihydrofolate reductase as antitumor agents: design, synthesis and biological evaluation of a series of novel nonclassical 6-substituted pyrido[3,2-d]pyrimidines with a three- to five-carbon bridge” (Bioorg Med Chem, 2018)
# How the values were obtained:
# HL-60 [1] = assay: Antiproliferative activity against human HL60 cells after 48 hrs by MTS assay; assay type: functional, cell-based; details: HL-60, 48 h
# Dihydrofolate reductase = molecular target: T1, Dihydrofolate reductase (Homo sapiens, UniProt P00374); assay: Inhibition of recombinant human DHFR using dihydrofolate as substrate after 15 mins in presence of NADPH
# T1 sequence (P00374 whole entry): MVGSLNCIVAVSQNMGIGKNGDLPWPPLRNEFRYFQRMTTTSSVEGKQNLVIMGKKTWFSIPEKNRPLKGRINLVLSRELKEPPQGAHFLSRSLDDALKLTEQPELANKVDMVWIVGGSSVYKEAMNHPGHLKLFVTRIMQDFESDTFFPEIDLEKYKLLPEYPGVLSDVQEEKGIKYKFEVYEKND
# HeLa = assay: Antiproliferative activity against human HeLa cells after 48 hrs by MTS assay
# HCT-116 = assay: Antiproliferative activity against human HCT116 cells after 48 hrs by MTS assay; assay type: functional, cell-based; details: HCT-116, 48 h
# HL-60 [2] = assay: Upregulation of DHFR protein level in human HL60 cells at 0.125 uM after 48 hrs by Western blot method relative to control; assay type: functional
# HL-60 [3] = assay: Induction of apoptosis in human HL60 cells assessed as live cells at 0.1 uM after 24 hrs by Annexin V-FITC/propidium iodide staining based flow cytometry (reference value: 90.7%); assay type: functional
# HL-60 [4] = assay: Cell cycle arrest in human HL60 cells assessed as accumulation at G1 phase at 4 uM after 24 hrs by propidium iodide staining based flow cytometry (reference value: 28.69%); assay type: functional
# HL-60 [5] = assay: Cell cycle arrest in human HL60 cells assessed as accumulation at S phase at 4 uM after 24 hrs by propidium iodide staining based flow cytometry (reference value: 57.76%); assay type: functional
# HL-60 [6] = assay: Cell cycle arrest in human HL60 cells assessed as accumulation at G2 phase at 4 uM after 24 hrs by propidium iodide staining based flow cytometry (reference value: 13.56%); assay type: functional
# HL-60 [7] = assay: Upregulation of DHFR protein level in human HL60 cells after 48 hrs by Western blot method; assay type: functional, cell-based
# HL-60 [8] = assay: Induction of apoptosis in human HL60 cells assessed as early apoptotic cells at 0.2 uM after 24 hrs by Annexin V-FITC/propidium iodide staining based flow cytometry (reference value: 2.09%); assay type: functional
# HL-60 [9] = assay: Induction of apoptosis in human HL60 cells assessed as necrotic cells at 0.1 uM after 24 hrs by Annexin V-FITC/propidium iodide staining based flow cytometry (reference value: 2.36%); assay type: functional
# HL-60 [10] = assay: Cell cycle arrest in human HL60 cells assessed as accumulation at G1 phase at 1 uM after 24 hrs by propidium iodide staining based flow cytometry (reference value: 28.69%); assay type: functional
# HL-60 [11] = assay: Cell cycle arrest in human HL60 cells assessed as accumulation at S phase at 1 uM after 24 hrs by propidium iodide staining based flow cytometry (reference value: 57.76%); assay type: functional
# HL-60 [12] = assay: Induction of apoptosis in human HL60 cells assessed as live cells at 0.2 uM after 24 hrs by Annexin V-FITC/propidium iodide staining based flow cytometry (reference value: 90.7%); assay type: functional
# HL-60 [13] = assay: Induction of apoptosis in human HL60 cells assessed as early apoptotic cells at 0.1 uM after 24 hrs by Annexin V-FITC/propidium iodide staining based flow cytometry (reference value: 2.09%); assay type: functional
# HL-60 [14] = assay: Induction of apoptosis in human HL60 cells assessed as late apoptotic cells at 0.1 uM after 24 hrs by Annexin V-FITC/propidium iodide staining based flow cytometry (reference value: 4.84%); assay type: functional
# HL-60 [15] = assay: Induction of apoptosis in human HL60 cells assessed as late apoptotic cells at 0.2 uM after 24 hrs by Annexin V-FITC/propidium iodide staining based flow cytometry (reference value: 4.84%); assay type: functional
# HL-60 [16] = assay: Induction of apoptosis in human HL60 cells assessed as necrotic cells at 0.2 uM after 24 hrs by Annexin V-FITC/propidium iodide staining based flow cytometry (reference value: 2.36%); assay type: functional
# HL-60 [17] = assay: Upregulation of DHFR protein level in human HL60 cells at 0.5 uM after 48 hrs by Western blot method relative to control; assay type: functional
# HL-60 [18] = assay: Upregulation of DHFR protein level in human HL60 cells at 0.25 uM after 48 hrs by Western blot method relative to control; assay type: functional
# HL-60 [19] = assay: Cell cycle arrest in human HL60 cells assessed as accumulation at G2 phase at 1 uM after 24 hrs by propidium iodide staining based flow cytometry (reference value: 13.56%); assay type: functional
compound,measurement,setting,value
Nc1nc(N)c2nc(/C=C/CCCc3ccccc3)ccc2n1,IC50,HL-60 [1],1.31 µM
same,IC50,Dihydrofolate reductase,2.1 µM
same,IC50,HeLa,17.6 µM
same,IC50,HCT-116,15.3 µM
Nc1nc(N)c2nc(CCC(O)c3ccccc3)ccc2n1 (stereo not drawn),IC50,HL-60 [1],1.52 µM
same,IC50,Dihydrofolate reductase,2.73 µM
same,IC50,HeLa,74.8 µM
same,IC50,HCT-116,17.3 µM
Nc1nc(N)c2nc(/C=C/C(=O)c3ccccc3)ccc2n1,IC50,HL-60 [1],1.5 µM
same,IC50,Dihydrofolate reductase,> 100 µM
same,IC50,HeLa,3.28 µM
same,IC50,HCT-116,10.2 µM
Nc1nc(N)c2nc(CCC(=O)c3ccccc3)ccc2n1,IC50,HL-60 [1],8.12 µM
same,IC50,Dihydrofolate reductase,11.2 µM
same,IC50,HeLa,85.6 µM
same,IC50,HCT-116,20.9 µM
Nc1nc(N)c2nc(CCC(O)CCc3ccccc3)ccc2n1 (stereo not drawn),IC50,HL-60 [1],1.23 µM
same,IC50,Dihydrofolate reductase,2.53 µM
same,IC50,HeLa,65.1 µM
same,IC50,HCT-116,20.6 µM
Nc1nc(N)c2nc(/C=C/C=C/c3ccccc3)ccc2n1,IC50,HL-60 [1],6.79 µM
same,IC50,Dihydrofolate reductase,12.3 µM
same,IC50,HeLa,14.9 µM
same,IC50,HCT-116,17.7 µM
Nc1nc(N)c2nc(CCCc3ccccc3)ccc2n1,fold change (FC),HL-60 [2],1.03
same,Activity,HL-60 [3],87.64%
same,IC50,HL-60 [1],0.2 µM
same,Activity,HL-60 [4],19.34%
same,Activity,HL-60 [5],80.66%
same,Activity,HL-60 [6],0%
same,IC50,Dihydrofolate reductase,0.06 µM
same,Activity,HL-60 [7],Dose-dependent effect
same,Activity,HL-60 [8],6.63%
same,Activity,HL-60 [9],2.21%
same,Activity,HL-60 [10],24.26%
same,Activity,HL-60 [11],62.39%
same,Activity,HL-60 [12],76.35%
same,Activity,HL-60 [13],3.45%
same,IC50,HeLa,49.1 µM
same,Activity,HL-60 [14],6.69%
same,Activity,HL-60 [15],11.06%
same,Activity,HL-60 [16],5.96%
same,fold change (FC),HL-60 [17],1.98
same,fold change (FC),HL-60 [18],1.62
same,IC50,HCT-116,9.56 µM
same,Activity,HL-60 [19],13.35%
CN(Cc1cnc2nc(N)nc(N)c2n1)c1ccc(C(=O)N[C@@H](CCC(=O)O)C(=O)O)cc1 [METHOTREXATE],IC50,HL-60 [1],0.025 µM
same,IC50,HCT-116,0.13 µM
Nc1nc(N)c2nc(/C=C/C(=O)/C=C/c3ccccc3)ccc2n1,IC50,HL-60 [1],1.08 µM
same,IC50,Dihydrofolate reductase,70.5 µM
same,IC50,HeLa,3.7 µM
same,IC50,HCT-116,12 µM
Nc1nc(N)c2nc(/C=C/Cc3ccccc3)ccc2n1,IC50,HL-60 [1],0.35 µM
same,IC50,Dihydrofolate reductase,0.59 µM
same,IC50,HeLa,25.3 µM
same,IC50,HCT-116,13.3 µM
Nc1nc(N)c2nc(CCCCc3ccccc3)ccc2n1,IC50,HL-60 [1],0.59 µM
same,IC50,Dihydrofolate reductase,0.61 µM
same,IC50,HeLa,47.1 µM
same,IC50,HCT-116,11 µM
Nc1nc(N)c2nc(CCCCCc3ccccc3)ccc2n1,IC50,HL-60 [1],0.78 µM
same,IC50,Dihydrofolate reductase,0.7 µM
same,IC50,HeLa,40.8 µM
same,IC50,HCT-116,11.7 µM
Nc1nc(N)c2nc(CCC(=O)CCc3ccccc3)ccc2n1,IC50,HL-60 [1],3.74 µM
same,IC50,Dihydrofolate reductase,7.93 µM
same,IC50,HeLa,77.5 µM
same,IC50,HCT-116,32.8 µM
